{"source": "patent US11149030B2", "about": "“Plants having increased tolerance to herbicides” (BASF AGRO B.V., priority 2016, dated 2021)", "system": "transgenic T2 Arabidopsis plants", "test": "Greenhouse spray of transgenic T2 Arabidopsis plants, herbicide injury 0 to 100% phytotox rating (Table A)", "assay_type": "in vivo", "conditions": "14 days after treatment", "method": "Additionally, transgenic T2 Arabidopsis plants are tested for improved tolerance to herbicides in greenhouse studies with the following herbicides: methyl 2-[2-chloro-5-[3-chloro-5-(trifluoromethyl)-2-pyridyl]-4-fluoro-phenoxy]-2-methoxy-acetate, and photosynthesis inhibitor diuron as negative control.\nTable A: Transgenic T2 Arabidopsis plants, four weeks old, were sprayed in the greenhouse with the indicated amount of compound+1% (v/v) MSO. Herbicide injury was evaluated 14 days after treatment with a 0 to 100% phytotox rating scale where 0 is no injury relative to an unsprayed wild type check and 100% is completely dead."}
{"smiles": "COC(=O)C(OC)Oc1cc(-c2ncc(C(F)(F)F)cc2Cl)c(F)cc1Cl", "note": "(stereo not drawn) [methyl 2-[2-chloro-5-[3-chloro-5-(trifluoromethyl)-2-pyridyl]-4-fluoro-phenoxy]-2-methoxy-acetate]", "values": [{"measurement": "Herbicide injury, 0 to 100% phytotox rating", "setting": "construct AMATU_PPO2 L397E_F420M, 100 g ai/ha + 1% (v/v) MSO", "result": 68, "unit": "%"}, {"measurement": "Herbicide injury, 0 to 100% phytotox rating", "setting": "construct AMATU_PPO2 L397E_F420M, 200 g ai/ha + 1% (v/v) MSO", "result": 79, "unit": "%"}, {"measurement": "Herbicide injury, 0 to 100% phytotox rating", "setting": "construct AMATU_PPO2 L397E_F420V, 50 g ai/ha + 1% (v/v) MSO", "result": 60, "unit": "%"}, {"measurement": "Herbicide injury, 0 to 100% phytotox rating", "setting": "construct AMATU_PPO2 L397E_F420V, 100 g ai/ha + 1% (v/v) MSO", "result": 76, "unit": "%"}, {"measurement": "Herbicide injury, 0 to 100% phytotox rating", "setting": "construct AMATU_PPO2 L397E_F420V, 200 g ai/ha + 1% (v/v) MSO", "result": 85, "unit": "%"}, {"measurement": "Herbicide injury, 0 to 100% phytotox rating", "setting": "construct AMATU_PPO2 L397G_F420M, 50 g ai/ha + 1% (v/v) MSO", "result": 40, "unit": "%"}, {"measurement": "Herbicide injury, 0 to 100% phytotox rating", "setting": "construct AMATU_PPO2 L397G_F420M, 100 g ai/ha + 1% (v/v) MSO", "result": 56, "unit": "%"}, {"measurement": "Herbicide injury, 0 to 100% phytotox rating", "setting": "construct AMATU_PPO2 L397G_F420M, 200 g ai/ha + 1% (v/v) MSO", "result": 66, "unit": "%"}, {"measurement": "Herbicide injury, 0 to 100% phytotox rating", "setting": "construct AMATU_PPO2 L397Q_F420M, 50 g ai/ha + 1% (v/v) MSO", "result": 45, "unit": "%"}, {"measurement": "Herbicide injury, 0 to 100% phytotox rating", "setting": "construct AMATU_PPO2 L397Q_F420M, 100 g ai/ha + 1% (v/v) MSO", "result": 61, "unit": "%"}, {"measurement": "Herbicide injury, 0 to 100% phytotox rating", "setting": "construct AMATU_PPO2 L397Q_F420M, 200 g ai/ha + 1% (v/v) MSO", "result": 73, "unit": "%"}, {"measurement": "Herbicide injury, 0 to 100% phytotox rating", "setting": "construct AMATU_PPO2 L397Q_F420V, 50 g ai/ha + 1% (v/v) MSO", "result": 69, "unit": "%"}, {"measurement": "Herbicide injury, 0 to 100% phytotox rating", "setting": "construct AMATU_PPO2 L397Q_F420V, 100 g ai/ha + 1% (v/v) MSO", "result": 66, "unit": "%"}, {"measurement": "Herbicide injury, 0 to 100% phytotox rating", "setting": "construct AMATU_PPO2 L397Q_F420V, 200 g ai/ha + 1% (v/v) MSO", "result": 83, "unit": "%"}, {"measurement": "Herbicide injury, 0 to 100% phytotox rating", "setting": "construct AMATU_PPO2 R128A_F420V, 50 g ai/ha + 1% (v/v) MSO", "result": 51, "unit": "%"}, {"measurement": "Herbicide injury, 0 to 100% phytotox rating", "setting": "construct AMATU_PPO2 R128A_F420V, 100 g ai/ha + 1% (v/v) MSO", "result": 69, "unit": "%"}, {"measurement": "Herbicide injury, 0 to 100% phytotox rating", "setting": "construct AMATU_PPO2 R128A_F420V, 150 g ai/ha + 1% (v/v) MSO", "result": 73, "unit": "%"}, {"measurement": "Herbicide injury, 0 to 100% phytotox rating", "setting": "construct AMATU_PPO2 R128I_F420V, 50 g ai/ha + 1% (v/v) MSO", "result": 64, "unit": "%"}, {"measurement": "Herbicide injury, 0 to 100% phytotox rating", "setting": "construct AMATU_PPO2 R128I_F420V, 100 g ai/ha + 1% (v/v) MSO", "result": 66, "unit": "%"}, {"measurement": "Herbicide injury, 0 to 100% phytotox rating", "setting": "construct AMATU_PPO2 R128I_F420V, 200 g ai/ha + 1% (v/v) MSO", "result": 80, "unit": "%"}, {"measurement": "Herbicide injury, 0 to 100% phytotox rating", "setting": "construct AMATU_PPO2 R128L_F420L, 50 g ai/ha + 1% (v/v) MSO", "result": 18, "unit": "%"}, {"measurement": "Herbicide injury, 0 to 100% phytotox rating", "setting": "construct AMATU_PPO2 R128L_F420L, 100 g ai/ha + 1% (v/v) MSO", "result": 30, "unit": "%"}, {"measurement": "Herbicide injury, 0 to 100% phytotox rating", "setting": "construct AMATU_PPO2 R128L_F420L, 200 g ai/ha + 1% (v/v) MSO", "result": 56, "unit": "%"}, {"measurement": "Herbicide injury, 0 to 100% phytotox rating", "setting": "construct AMATU_PPO2 R128M_F420I, 50 g ai/ha + 1% (v/v) MSO", "result": 63, "unit": "%"}, {"measurement": "Herbicide injury, 0 to 100% phytotox rating", "setting": "construct AMATU_PPO2 R128M_F420I, 100 g ai/ha + 1% (v/v) MSO", "result": 83, "unit": "%"}, {"measurement": "Herbicide injury, 0 to 100% phytotox rating", "setting": "construct AMATU_PPO2 R128M_F420I, 200 g ai/ha + 1% (v/v) MSO", "result": 91, "unit": "%"}, {"measurement": "Herbicide injury, 0 to 100% phytotox rating", "setting": "construct AMATU_PPO2 R128M_F420L, 50 g ai/ha + 1% (v/v) MSO", "result": 30, "unit": "%"}, {"measurement": "Herbicide injury, 0 to 100% phytotox rating", "setting": "construct AMATU_PPO2 R128M_F420L, 100 g ai/ha + 1% (v/v) MSO", "result": 60, "unit": "%"}, {"measurement": "Herbicide injury, 0 to 100% phytotox rating", "setting": "construct AMATU_PPO2 R128M_F420L, 200 g ai/ha + 1% (v/v) MSO", "result": 73, "unit": "%"}, {"measurement": "Herbicide injury, 0 to 100% phytotox rating", "setting": "construct AMATU_PPO2 R128M_F420M, 50 g ai/ha + 1% (v/v) MSO", "result": 100, "unit": "%"}, {"measurement": "Herbicide injury, 0 to 100% phytotox rating", "setting": "construct AMATU_PPO2 R128M_F420M, 100 g ai/ha + 1% (v/v) MSO", "result": 85, "unit": "%"}, {"measurement": "Herbicide injury, 0 to 100% phytotox rating", "setting": "construct AMATU_PPO2 R128M_F420M, 200 g ai/ha + 1% (v/v) MSO", "result": 100, "unit": "%"}, {"measurement": "Herbicide injury, 0 to 100% phytotox rating", "setting": "construct AMATU_PPO2 R128M_F420V, 50 g ai/ha + 1% (v/v) MSO", "result": 64, "unit": "%"}, {"measurement": "Herbicide injury, 0 to 100% phytotox rating", "setting": "construct AMATU_PPO2 R128M_F420V, 100 g ai/ha + 1% (v/v) MSO", "result": 75, "unit": "%"}, {"measurement": "Herbicide injury, 0 to 100% phytotox rating", "setting": "construct AMATU_PPO2 R128M_F420V, 200 g ai/ha + 1% (v/v) MSO", "result": 93, "unit": "%"}, {"measurement": "Herbicide injury, 0 to 100% phytotox rating", "setting": "construct Arabidopsis PPO1 S305L_Y426M, 50 g ai/ha + 1% (v/v) MSO", "result": 49, "unit": "%"}, {"measurement": "Herbicide injury, 0 to 100% phytotox rating", "setting": "construct Arabidopsis PPO1 S305L_Y426M, 100 g ai/ha + 1% (v/v) MSO", "result": 100, "unit": "%"}, {"measurement": "Herbicide injury, 0 to 100% phytotox rating", "setting": "construct Arabidopsis PPO1 S305L_Y426M, 150 g ai/ha + 1% (v/v) MSO", "result": 100, "unit": "%"}, {"measurement": "Herbicide injury, 0 to 100% phytotox rating", "setting": "construct CHLSP_PPO_wt_tpFNR (CHLSP_PPO SEQ ID NO: 256), 50 g ai/ha + 1% (v/v) MSO", "result": 91, "unit": "%"}, {"measurement": "Herbicide injury, 0 to 100% phytotox rating", "setting": "construct CHLSP_PPO_wt_tpFNR (CHLSP_PPO SEQ ID NO: 256), 100 g ai/ha + 1% (v/v) MSO", "result": 97, "unit": "%"}, {"measurement": "Herbicide injury, 0 to 100% phytotox rating", "setting": "construct CHLSP_PPO_wt_tpFNR (CHLSP_PPO SEQ ID NO: 256), 200 g ai/ha + 1% (v/v) MSO", "result": 95, "unit": "%"}, {"measurement": "Herbicide injury, 0 to 100% phytotox rating", "setting": "construct OPITE_PPO_wt_tpFNR (OPITE_PPO SEQ ID NO: 249), 50 g ai/ha + 1% (v/v) MSO", "result": 100, "unit": "%"}, {"measurement": "Herbicide injury, 0 to 100% phytotox rating", "setting": "construct OPITE_PPO_wt_tpFNR (OPITE_PPO SEQ ID NO: 249), 100 g ai/ha + 1% (v/v) MSO", "result": 100, "unit": "%"}, {"measurement": "Herbicide injury, 0 to 100% phytotox rating", "setting": "construct OPITE_PPO_wt_tpFNR (OPITE_PPO SEQ ID NO: 249), 200 g ai/ha + 1% (v/v) MSO", "result": 100, "unit": "%"}, {"measurement": "Herbicide injury, 0 to 100% phytotox rating", "setting": "construct hemG_tp_FNR (SEQ ID NO: 245), 50 g ai/ha + 1% (v/v) MSO", "result": 96, "unit": "%"}, {"measurement": "Herbicide injury, 0 to 100% phytotox rating", "setting": "construct hemG_tp_FNR (SEQ ID NO: 245), 100 g ai/ha + 1% (v/v) MSO", "result": 100, "unit": "%"}, {"measurement": "Herbicide injury, 0 to 100% phytotox rating", "setting": "construct hemG_tp_FNR (SEQ ID NO: 245), 200 g ai/ha + 1% (v/v) MSO", "result": 99, "unit": "%"}, {"measurement": "Herbicide injury, 0 to 100% phytotox rating", "setting": "construct hemG_tp_long AMATU (SEQ ID NO: 246), 50 g ai/ha + 1% (v/v) MSO", "result": 68, "unit": "%"}, {"measurement": "Herbicide injury, 0 to 100% phytotox rating", "setting": "construct hemG_tp_long AMATU (SEQ ID NO: 246), 100 g ai/ha + 1% (v/v) MSO", "result": 75, "unit": "%"}, {"measurement": "Herbicide injury, 0 to 100% phytotox rating", "setting": "construct hemG_tp_long AMATU (SEQ ID NO: 246), 200 g ai/ha + 1% (v/v) MSO", "result": 79, "unit": "%"}, {"measurement": "Herbicide injury, 0 to 100% phytotox rating", "setting": "non transformed Arabidopsis, 50 g ai/ha + 1% (v/v) MSO", "result": 100, "unit": "%"}, {"measurement": "Herbicide injury, 0 to 100% phytotox rating", "setting": "non transformed Arabidopsis, 100 g ai/ha + 1% (v/v) MSO", "result": 100, "unit": "%"}, {"measurement": "Herbicide injury, 0 to 100% phytotox rating", "setting": "non transformed Arabidopsis, 150 g ai/ha + 1% (v/v) MSO", "result": 100, "unit": "%"}, {"measurement": "Herbicide injury, 0 to 100% phytotox rating", "setting": "non transformed Arabidopsis, 200 g ai/ha + 1% (v/v) MSO", "result": 100, "unit": "%"}]}
